Data from publication PMC8231113, “Protein Secondary Structure Affects Glycan Clustering in Native Mass Spectrometry” (Life, 2021).

What was measured:
[1] = target: T1, L-lactic dehydrogenase from rabbit muscle (LDH) (Oryctolagus cuniculus, UniProt P13491); experiment: Native MS glycan clustering to reference protein LDH; format: binding; settings: on LDH
T1 construct: L-lactic dehydrogenase from rabbit muscle (LDH, CAS number 9001-60-9); purchased Sigma-Aldrich (Merck, Germany); host or cells: rabbit muscle
Experimental: (§1) Prior to MS analysis, purified P dimers were buffer exchanged to 150 mM ammonium acetate (Sigma-Aldrich, reagent grade ≥98%) at pH 7 via centrifugal filter units at 12,000× g at 4 °C (Vivaspin 500, MWCO 10000, Sartorius). Glycans for native MS analysis were mixed with 1 µM (per monomer) purified GII.4 Saga P dimer and 3 µM of the reference proteins at indicated concentrations. Native mass spectra were measured at room temperature in positive ion mode on a high mass modified LCT Premier mass spectrometer (Waters/Micromass, UK and MS Vision, the Netherlands) with a nano-ESI source. In house-made gold-coated electrospray capillaries were used for direct-sample infusion without any accessory chromatographic separation. The voltages and pressures were optimized for non-covalent protein complexes. The gas pressure used in the source hexapole was set between 6.5 and 6.8 × 10^−2 mbar argon optimized for minimal complex dissociation and the backing pressure of the source roughing pump was set between 7.0 and 8.5 mbar. Spectra were recorded with applied voltages for the capillary and cone of 1.20 kV and 240 V, respectively. Note that charge state distributions for P dimers were sometimes slightly shifted as was the degree of glycan clustering per charge state. These changes were highly variable and not quantifiable.
(§2) For calibration of the raw data, a 25 mg/mL cesium iodide spectrum from the same day was used. MassLynx V4.1 (Waters, Manchester, UK) was used to assign peak series to protein species and to determine the mass after minimal smoothing. Furthermore, OriginPro 2016 SR2 (OriginLab, Northampton, MA, USA) was used for spectral deconvolution and curve fitting. Correction for nonspecific protein-ligand clustering was performed as described. Corrected peak areas were averaged and normalized to the free-protein signal. Data were based on at least three independent measurements. Python code Panda and Numpy package were used to calculate the specific binding of P dimers according to the glycan clustering ratio obtained from the selected reference protein candidates. Seaborn and matplotlib.pyplot package were imported into a python script to plot the results. The module of sklearn.linear model was applied for linear regression. The matplotlib and heatmap package were used to plot the heatmap.
(§3) Theoretically, the KD is calculated by measuring the concentration of the three components (Pfree, Lfree, PL) in solution. Usually, these values are only indirectly accessible because they require ligand titration up to binding saturation. However, native MS allows for the directly measurement of Pfree and PL, from which Lfree can be calculated using the input concentrations. In the present work, the non-covalent interaction was measured in the gas phase assuming identical ESI and detection efficiency for free and glycan-associated proteins, both for the analyte and the reference protein. […] For P dimers, the equations reflect glycan binding to the individual monomers assuming that binding sites on each monomer are equal and independent.
(§4) Using R described in Equation (3), the KD calculation can be re-written into Equation (4) with the known initial concentration of glycan ligand [L0] and protein [P0], adapted from Sun et al.:(3) R=PLequil∕Pequil=∑nA(PL^n+)∕n∕∑nA(P^n+)∕n (4) KD =L0−RP0/1+R/R
(§5) For the carbohydrate-binding experiments, it was essential to keep the initial protein concentrations and pH value constant during the analysis of the protein-carbohydrate solutions. While acidification occurs in any ESI droplet, the remaining solution in the capillary changes pH over time. Therefore, accumulated spectra were obtained within 10 min after the voltages were applied to minimize the influence of pH changes during the measurements. […]

[2] = target: T2, alcohol dehydrogenase from Saccharomyces cerevisiae (ADH) (Saccharomyces cerevisiae, UniProt P00330); experiment: Native MS glycan clustering to reference protein ADH; format: binding; settings: on ADH
T2 construct: alcohol dehydrogenase from Saccharomyces cerevisiae (ADH, CAS number 9031-72-5); purchased Sigma-Aldrich (Merck, Germany); host or cells: Saccharomyces cerevisiae
T2 sequence (P00330 2-348 limits assumed): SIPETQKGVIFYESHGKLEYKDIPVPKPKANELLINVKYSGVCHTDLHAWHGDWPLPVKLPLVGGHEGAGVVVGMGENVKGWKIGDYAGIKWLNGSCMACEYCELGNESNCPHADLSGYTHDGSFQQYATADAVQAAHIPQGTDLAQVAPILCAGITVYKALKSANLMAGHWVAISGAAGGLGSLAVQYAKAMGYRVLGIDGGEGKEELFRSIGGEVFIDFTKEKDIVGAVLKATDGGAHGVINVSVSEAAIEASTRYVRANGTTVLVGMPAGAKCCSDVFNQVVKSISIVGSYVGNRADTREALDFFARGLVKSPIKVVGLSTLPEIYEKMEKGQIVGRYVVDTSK
Experimental: as §1, §2, §3, §4, §5

[3] = target: T3, myoglobin from equine heart (Myo) (Equus caballus, UniProt P68082); experiment: Native MS glycan clustering to reference protein Myo; format: binding; settings: on Myo
T3 construct: myoglobin from equine heart (Myo, CAS number 100684-32-0); purchased Sigma-Aldrich (Merck, Germany); host or cells: equine heart
Experimental: as §1, §2, §3, §4, §5

[4] = target: T4, ubiquitin from bovine erythrocytes (Ubq) (Bos taurus, UniProt P0CG53); experiment: Native MS glycan clustering to reference protein Ubq; format: binding; settings: on Ubq
T4 construct: ubiquitin from bovine erythrocytes (Ubq, CAS number 75986-22-4); purchased Sigma-Aldrich (Merck, Germany); host or cells: bovine erythrocytes
Experimental: as §1, §2, §3, §4, §5

[5] = target: T5, cytochrome c from equine heart (cyt c) (Equus caballus, UniProt P00004); experiment: Native MS glycan clustering to reference protein cyt c; format: binding; settings: on Cyt c
T5 construct: cytochrome c from equine heart (cyt c, CAS number 9007-43-6); purchased Sigma-Aldrich (Merck, Germany); host or cells: equine heart
Experimental: as §1, §2, §3, §4, §5

[6] = target: T6, carbonic anhydrase isozyme II from bovine erythrocytes (CA) (Bos taurus, UniProt P00921); experiment: Native MS glycan clustering to reference protein CA; format: binding; settings: on CA
T6 construct: carbonic anhydrase isozyme II from bovine erythrocytes (CA, CAS number 9001-03-0); purchased Sigma-Aldrich (Merck, Germany); host or cells: bovine erythrocytes
Experimental: as §1, §2, §3, §4, §5

[7] = target: wildtype GII.4 Saga P dimer; settings: wildtype P dimer; read-out: KD determined by NMR; cited from earlier work
[8] = tested on: mutated hNoV GII.4 MI001 P dimer; experiment: Native MS corrected glycan binding to mutated MI001 P domain; parameters: species or system human norovirus (hNoV); settings: cyt c reference; 100 µM glycan

T5 sequence (P00004 whole entry): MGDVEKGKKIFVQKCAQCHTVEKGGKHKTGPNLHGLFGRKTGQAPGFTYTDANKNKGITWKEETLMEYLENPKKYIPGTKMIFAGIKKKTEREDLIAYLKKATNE
T3 sequence (P68082 whole entry): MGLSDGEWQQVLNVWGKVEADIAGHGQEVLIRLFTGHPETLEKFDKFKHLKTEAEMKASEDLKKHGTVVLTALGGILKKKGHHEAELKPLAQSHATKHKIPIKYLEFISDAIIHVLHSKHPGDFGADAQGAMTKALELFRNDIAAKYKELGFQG
T6 sequence (P00921 whole entry): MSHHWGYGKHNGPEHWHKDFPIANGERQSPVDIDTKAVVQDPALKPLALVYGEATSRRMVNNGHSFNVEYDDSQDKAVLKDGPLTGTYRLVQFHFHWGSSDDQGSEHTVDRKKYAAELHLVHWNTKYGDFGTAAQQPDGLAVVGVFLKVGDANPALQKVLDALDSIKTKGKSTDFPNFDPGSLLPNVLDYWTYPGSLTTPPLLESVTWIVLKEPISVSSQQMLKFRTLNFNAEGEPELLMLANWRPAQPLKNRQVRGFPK

Compound	Glycan-Clustering Ratio R ([2]; 100 µM glycan)	Glycan-Clustering Ratio R ([2]; 200 µM glycan)	Glycan-Clustering Ratio R ([2]; 300 µM glycan)	Glycan-Clustering Ratio R ([2]; 400 µM glycan)	Glycan-Clustering Ratio R ([2]; 500 µM glycan)	Glycan-Clustering Ratio R ([3]; 100 µM glycan)	Glycan-Clustering Ratio R ([3]; 200 µM glycan)	Glycan-Clustering Ratio R ([3]; 300 µM glycan)	Glycan-Clustering Ratio R ([3]; 400 µM glycan)	Glycan-Clustering Ratio R ([3]; 500 µM glycan)	Glycan-Clustering Ratio R ([4]; 100 µM glycan)	Glycan-Clustering Ratio R ([4]; 200 µM glycan)	Glycan-Clustering Ratio R ([4]; 300 µM glycan)	Glycan-Clustering Ratio R ([4]; 400 µM glycan)	Glycan-Clustering Ratio R ([4]; 500 µM glycan)	Glycan-Clustering Ratio R ([5]; 100 µM glycan)	Glycan-Clustering Ratio R ([5]; 200 µM glycan)	Glycan-Clustering Ratio R ([5]; 300 µM glycan)	Glycan-Clustering Ratio R ([5]; 400 µM glycan)	Glycan-Clustering Ratio R ([5]; 500 µM glycan)	other results
CC(=O)N[C@H]1C(O)O[C@H](CO)[C@@H](O)[C@@H]1O[C@@H]1O[C@H](CO)[C@H](O)[C@H](O[C@H]2O[C@H](CO)[C@H](O)[C@H](O)[C@H]2O)[C@H]1O[C@@H]1O[C@@H](C)[C@@H](O)[C@@H](O)[C@@H]1O (stereo partly drawn) [HBGA B, Galα1-3(Fucα1-2)Galβ1-3GlcNAc]	0.42±0.03	0.64±0.06	0.97±0.08	1.02±0.08	1.45 ± 0.11	0.14±0.03	0.18±0.02	0.19±0.06	0.31±0.04	0.36 ± 0.05	0.04±0.01	0.04±0.01	0.10±0.03	0.18±0.01	0.25 ± 0.00	0.14±0.01	0.15±0.01	0.19±0.03	0.29±0.02	0.35 ± 0.03	Glycan-Clustering Ratio R ([1]; 100 µM glycan): 0.38±0.03; Glycan-Clustering Ratio R ([1]; 200 µM glycan): 0.54±0.05; Glycan-Clustering Ratio R ([1]; 300 µM glycan): 0.69±0.02; Glycan-Clustering Ratio R ([1]; 400 µM glycan): 0.77±0.05; Glycan-Clustering Ratio R ([1]; 500 µM glycan): 1.02 ± 0.04; Glycan-Clustering Ratio R ([6]; 100 µM glycan): 0.22±0.03; Glycan-Clustering Ratio R ([6]; 200 µM glycan): 0.32±0.05; Glycan-Clustering Ratio R ([6]; 300 µM glycan): 0.40±0.04; Glycan-Clustering Ratio R ([6]; 400 µM glycan): 0.60±0.05; Glycan-Clustering Ratio R ([6]; 500 µM glycan): 0.75 ± 0.07; Kd [7]: 12 mM
CC(=O)N[C@H]1[C@@H](O[C@H]2[C@@H](O)[C@@H](CO)O[C@@H](O[C@H]3[C@H](O)[C@@H](CO)OC(O)[C@@H]3NC(C)=O)[C@@H]2O[C@@H]2O[C@@H](C)[C@@H](O)[C@@H](O)[C@@H]2O)O[C@H](CO)[C@H](O)[C@@H]1O (stereo partly drawn) [HBGA A, GalNAcα1-3(Fucα-2)Galβ1-3GlcNAc]	0.39± 0.02	0.65± 0.02	0.88± 0.10	0.98± 0.05	1.32 ± 0.10	0.13±0.03	0.16±0.03	0.22±0.03	0.29±0.04	0.34 ± 0.03	0.06±0.03	0.04±0.01	0.13±0.01	0.18±0.01	0.10 ± 0.05	0.18±0.03	0.16± 0.02	0.19± 0.03	0.27± 0.02	0.41 ± 0.09	Glycan-Clustering Ratio R ([6]; 100 µM glycan): 0.20±0.05; Glycan-Clustering Ratio R ([6]; 200 µM glycan): 0.37±0.01; Glycan-Clustering Ratio R ([6]; 300 µM glycan): 0.42±0.02; Glycan-Clustering Ratio R ([6]; 400 µM glycan): 0.57±0.02; Glycan-Clustering Ratio R ([6]; 500 µM glycan): 0.74 ± 0.07
CC(=O)N[C@H]1[C@H](O[C@H]2[C@@H](O)[C@@H](CO)O[C@H](O[C@@H]3[C@H](O)[C@@H](O)[C@H](O[C@H]4[C@H](O)[C@@H](O)C(O)O[C@@H]4CO)O[C@@H]3CO)[C@@H]2O)O[C@H](CO)[C@H](O)[C@@H]1O (stereo partly drawn) [Gb4, GalNAc β1-3 Galα1-4Galβ1-4Glc]	0.34±0.04	0.66±0.03	0.81±0.11	1.03±0.08	1.26 ± 0.03	0.14±0.02	0.17±0.03	0.20±0.03	0.30±0.01	0.37 ± 0.06	0.03±0.01	0.04±0.01	0.12±0.02	0.21±0.20	0.09 ± 0.03	0.10±0.01	0.15±0.00	0.19±0.03	0.29±0.04	0.45 ± 0.02	Glycan-Clustering Ratio R ([1]; 100 µM glycan): 0.35±0.04; Glycan-Clustering Ratio R ([1]; 200 µM glycan): 0.51±0.08; Glycan-Clustering Ratio R ([1]; 300 µM glycan): 0.68±0.02; Glycan-Clustering Ratio R ([1]; 400 µM glycan): 0.80±0.01; Glycan-Clustering Ratio R ([1]; 500 µM glycan): 0.91±0.06; Glycan-Clustering Ratio R ([6]; 100 µM glycan): 0.21±0.01; Glycan-Clustering Ratio R ([6]; 200 µM glycan): 0.32±0.07; Glycan-Clustering Ratio R ([6]; 300 µM glycan): 0.50±0.00; Glycan-Clustering Ratio R ([6]; 400 µM glycan): 0.60±0.05; Glycan-Clustering Ratio R ([6]; 500 µM glycan): 0.75 ± 0.03; corrected binding to mutated MI001 P dimer [8]: basically no binding
